What was measured:
[1] = target: T1, Vigilin (HDLBP) (Homo sapiens, UniProt Q00341); assay: Affinity chromatography with NFX-beads and mass spectrometry; assay type: binding; settings: spectral counts, NFX coupled beads vs beads alone, human fibroblast extracts
T1 construct: Protein extracts from human fibroblasts were incubated with magnetic beads; endogenous in cells; host or cells: human fibroblast lysate
T1 sequence (Q00341 1-1268): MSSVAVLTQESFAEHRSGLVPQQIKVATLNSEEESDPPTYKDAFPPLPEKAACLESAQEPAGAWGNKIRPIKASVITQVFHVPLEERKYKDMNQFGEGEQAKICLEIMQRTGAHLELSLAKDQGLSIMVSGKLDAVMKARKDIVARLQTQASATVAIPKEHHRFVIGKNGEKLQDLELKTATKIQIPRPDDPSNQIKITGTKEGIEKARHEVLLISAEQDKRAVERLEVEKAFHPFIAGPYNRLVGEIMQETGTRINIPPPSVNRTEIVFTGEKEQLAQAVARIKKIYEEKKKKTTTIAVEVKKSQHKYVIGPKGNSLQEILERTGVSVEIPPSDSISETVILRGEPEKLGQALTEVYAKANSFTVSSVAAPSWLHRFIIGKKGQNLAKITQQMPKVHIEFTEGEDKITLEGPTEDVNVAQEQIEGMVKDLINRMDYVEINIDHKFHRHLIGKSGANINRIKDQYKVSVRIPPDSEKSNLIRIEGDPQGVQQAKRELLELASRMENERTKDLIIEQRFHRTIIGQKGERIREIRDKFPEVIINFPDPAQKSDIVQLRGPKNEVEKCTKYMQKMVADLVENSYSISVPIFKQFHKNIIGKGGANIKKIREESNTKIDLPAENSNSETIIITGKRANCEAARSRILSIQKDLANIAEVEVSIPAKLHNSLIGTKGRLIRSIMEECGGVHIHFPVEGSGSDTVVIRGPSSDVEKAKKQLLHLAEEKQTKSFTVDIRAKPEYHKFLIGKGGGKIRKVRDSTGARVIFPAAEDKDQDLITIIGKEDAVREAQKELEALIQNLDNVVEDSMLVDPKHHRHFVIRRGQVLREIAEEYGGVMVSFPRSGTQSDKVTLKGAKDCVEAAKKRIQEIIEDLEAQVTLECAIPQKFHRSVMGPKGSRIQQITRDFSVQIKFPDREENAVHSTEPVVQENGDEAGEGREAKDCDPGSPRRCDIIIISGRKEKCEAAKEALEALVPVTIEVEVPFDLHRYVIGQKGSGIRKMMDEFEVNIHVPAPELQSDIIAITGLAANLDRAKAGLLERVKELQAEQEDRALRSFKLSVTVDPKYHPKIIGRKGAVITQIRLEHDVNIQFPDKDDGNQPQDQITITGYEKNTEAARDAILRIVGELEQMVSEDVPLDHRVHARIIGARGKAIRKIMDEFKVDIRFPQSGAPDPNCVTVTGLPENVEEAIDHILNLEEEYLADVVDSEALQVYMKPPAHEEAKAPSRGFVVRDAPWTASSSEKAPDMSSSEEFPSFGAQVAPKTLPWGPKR
Protocol: (§1) Fibroblasts were trypsinized and washed with PBS 1× then incubated in lysis buffer on ice during 20 minutes (Lysis buffer: Tris-HCl pH 7.5 50 mM, EDTA 2 mM, Triton X-100 0.1% supplemented with anti-protease and anti-phosphatase (Complete-Mini™—Roche). After centrifugation 15 minutes, 13 000 rpm at 4° C., supernatant was conserved and the protein concentration was determined using the Pierce BCA assay kit (Thermo Fisher Scientific).
(§2) 10 μL of magnetic beads and NFX-beads were washed three times in Bead buffer before to be resuspended 100 μL of Bead buffer (Bead buffer: Tris-HCl pH 7.5 50 mM, NaCl 150 mM, Triton X-100 0.1%, supplemented with anti-protease and anti-phosphatase (Complete-Mini™—Roche)) thanks to a magnetic rack (DynaMag-2 Ref 12321D Life Technologies). 800 μg of proteins were mixed with 100 μL of diluted beads and the final volume was set to 800 μL with Bead buffer. The proteins and the beads were incubated 30 minutes with rotation in a cold room. Using a magnetic rack, the beads were separated from the protein extract and washed three time with Bead buffer before to be resuspended in 75 μL of Laemmli2X. Laemmli with beads was put 5 minutes at 95° C. to eluate the proteins and the beads were discarded using a magnetic rack. 35 μL of the eluted proteins were subjected to SDS-PAGE and silver coloration (ProteoSilver™ Silver Stain Kit—Sigma Aldrich). Bands of interest were extracted from the gel and subjected to mass spectrometry.
(§3) Mass spectrometric identification and quantification of the pulled down proteins were performed as previously described (Shrivastava et al., EMBO, 2019, 38:e99871). The raw data were cleaned using the following pathway. First, only the proteins found to interact with the NFX coupled beads in the three replicates were kept for further analysis. […] The final proteins were then classified based on the fold chance and the p-value.
(§4) Identification of the NFX intracellular targets is a crucial step in understanding its mechanisms of action and to be able to improve its efficiency on a rational basis. To purify NFX-binding proteins, affinity chromatography purification was performed using magnetic beads. Protein extracts from human fibroblasts were incubated with magnetic beads alone or to which NFX has been covalently coupled (Scheme 1). Eluted fractions were subjected to SDS-PAGE electrophoresis and silver staining (FIG. 9A). The pattern was clearly different between eluted proteins from NFX-beads compared to those eluted form beads alone with 13 bands either appeared or were of a higher intensity with the NFX-beads (FIG. 9B). Excised bands were subjected to proteolytic digestion and mass spectrometry.

[2] = target: T2, Myotubularin-related protein 5 (SBF1) (Homo sapiens, UniProt O95248); assay: as above; assay type: binding; settings: spectral counts, NFX coupled beads vs beads alone, human fibroblast extracts
T2 construct: Protein extracts from human fibroblasts were incubated with magnetic beads; endogenous in cells; host or cells: human fibroblast lysate
T2 sequence (O95248 whole entry): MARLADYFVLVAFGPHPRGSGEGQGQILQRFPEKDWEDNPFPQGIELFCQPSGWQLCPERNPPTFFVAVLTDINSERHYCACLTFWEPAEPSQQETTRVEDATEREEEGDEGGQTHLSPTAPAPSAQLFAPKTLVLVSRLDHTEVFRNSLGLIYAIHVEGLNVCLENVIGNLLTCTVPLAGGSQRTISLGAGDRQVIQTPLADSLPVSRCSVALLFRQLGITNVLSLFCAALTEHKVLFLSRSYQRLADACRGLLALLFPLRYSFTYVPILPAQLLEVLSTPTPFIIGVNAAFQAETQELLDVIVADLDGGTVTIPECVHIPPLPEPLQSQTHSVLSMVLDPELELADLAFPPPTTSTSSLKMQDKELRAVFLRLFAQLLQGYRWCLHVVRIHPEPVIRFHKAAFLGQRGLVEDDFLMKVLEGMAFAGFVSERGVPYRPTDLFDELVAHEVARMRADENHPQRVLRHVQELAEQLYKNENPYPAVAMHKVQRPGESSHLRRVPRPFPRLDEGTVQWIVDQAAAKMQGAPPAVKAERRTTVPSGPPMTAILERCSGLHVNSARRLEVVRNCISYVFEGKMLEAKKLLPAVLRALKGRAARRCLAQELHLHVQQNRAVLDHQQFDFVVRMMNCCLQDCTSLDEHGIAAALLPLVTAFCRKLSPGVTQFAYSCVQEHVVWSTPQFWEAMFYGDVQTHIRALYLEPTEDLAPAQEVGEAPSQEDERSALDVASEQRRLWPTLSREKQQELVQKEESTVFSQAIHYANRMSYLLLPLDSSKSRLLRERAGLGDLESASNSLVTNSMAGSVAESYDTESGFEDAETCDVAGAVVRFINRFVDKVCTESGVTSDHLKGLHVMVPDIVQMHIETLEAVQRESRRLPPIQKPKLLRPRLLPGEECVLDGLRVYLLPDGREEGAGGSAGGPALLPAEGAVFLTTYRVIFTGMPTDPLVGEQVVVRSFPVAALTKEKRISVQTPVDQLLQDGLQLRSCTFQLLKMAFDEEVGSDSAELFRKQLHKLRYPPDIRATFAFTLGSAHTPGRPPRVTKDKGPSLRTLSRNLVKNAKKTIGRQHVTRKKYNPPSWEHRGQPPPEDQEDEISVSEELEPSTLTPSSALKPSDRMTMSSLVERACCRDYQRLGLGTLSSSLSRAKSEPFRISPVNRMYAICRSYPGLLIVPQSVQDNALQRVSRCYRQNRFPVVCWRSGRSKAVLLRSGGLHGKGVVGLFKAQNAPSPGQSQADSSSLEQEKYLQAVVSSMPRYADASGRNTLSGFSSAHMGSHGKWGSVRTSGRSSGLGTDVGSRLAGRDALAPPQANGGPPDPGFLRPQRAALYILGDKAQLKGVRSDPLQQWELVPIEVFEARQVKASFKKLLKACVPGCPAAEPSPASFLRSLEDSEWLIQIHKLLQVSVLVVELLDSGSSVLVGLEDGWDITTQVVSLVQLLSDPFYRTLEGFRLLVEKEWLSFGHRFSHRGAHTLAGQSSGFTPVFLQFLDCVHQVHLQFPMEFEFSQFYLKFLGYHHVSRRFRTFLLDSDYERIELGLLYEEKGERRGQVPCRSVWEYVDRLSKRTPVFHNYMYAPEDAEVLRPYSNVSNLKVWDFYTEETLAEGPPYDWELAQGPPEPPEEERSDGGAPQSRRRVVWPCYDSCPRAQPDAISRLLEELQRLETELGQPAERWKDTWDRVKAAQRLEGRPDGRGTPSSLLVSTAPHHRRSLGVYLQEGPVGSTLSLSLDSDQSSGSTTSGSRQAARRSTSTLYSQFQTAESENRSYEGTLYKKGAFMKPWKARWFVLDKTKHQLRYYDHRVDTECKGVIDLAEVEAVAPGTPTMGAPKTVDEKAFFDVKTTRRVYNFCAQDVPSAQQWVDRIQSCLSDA
Protocol: as §1, §2, §3, §4

- Fold change [1]: 77.14
- Fold change [2]: 41.35
SMILES: O=C(N/N=C/c1ccc([N+](=O)[O-])o1)c1ccc(O)cc1 [NFX, (E)-4-hydroxy-N′-((5-nitrofuran-2-yl)methylene)benzohydrazide]
